In patent publication US11185100B2 (priority 2014, dated 2021):
Where a name gives a salt, the structure may show the parent alone.

Tests used:
cat T1R1/T1R3 receptor [1] = target: T1, cat T1R1/T1R3 receptor (Felis catus, UniProt E3UMS2); test: Activation of cat T1R1/T1R3 receptor by nucleotide derivatives alone, with alanine and/or IMP; HEK293 cells, intracellular calcium fluorescence (Example 1); format: cell-based
Source text: […] Activation of the T1R1/T1R3 receptor was detected by a change in intracellular calcium levels using a calcium sensitive fluorescent dye. Cells that express T1R3 but not T1R1 were used as a control. A FLIPR® Tetra or a FlexStation® 3 was used for data capture.
The term half maximal effective concentration (EC50) refers to the concentration of a compound which induces a response halfway between the baseline and the maximum after a specified exposure time. In each experiment, serial dilutions of up to 0.1 mM, 1 mM or 10 mM of the nucleotide derivative were added to the T1R1/T1R3-expressing cells.

cat T1R1/T1R3 receptor [2] = target: T1, cat T1R1/T1R3 receptor; test: cell-based; format: cell-based
Procedure, shortened: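 Umami receptor activation in HEK293 cells stably expressing T1R3 with inducible T1R1, exposed to nucleotide derivatives alone or combined with amino acids and/or nucleotides. Intracellular calcium read with a calcium-sensitive fluorescent dye and/or luminescent reporter; cells expressing T1R3 without T1R1 served as control.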

[3] = compound alone in buffer, read-out: EC50- alone
[4] = with 20 mM alanine, read-out: EC50- with Ala
[5] = EC50- with IMP (mM), with 0.2 mM IMP

Structure (SMILES)	EC50 (cat T1R1/T1R3 receptor [1]; [3]) [mM]	EC50 (cat T1R1/T1R3 receptor [1]; [4]) [mM]	EC50 (cat T1R1/T1R3 receptor [1]; EC50- with Ala and IMP (mM), with 20 mM alanine and 0.2 mM IMP) [mM]	EC50 (cat T1R1/T1R3 receptor [1]; [5]) [mM]	Activity (cat T1R1/T1R3 receptor [2])	Max. resp. % of IMP (cat T1R1/T1R3 receptor [2]; hek293 cells)	EC50 (cat T1R1/T1R3 receptor [2]; in the presence of 20 mM alanine, read-out: EC50- with Ala) [µM]
Nc1ncnc2c1ncn2C1OC(COP(=O)(O)O)C(OP(=O)(O)O)C1O (stereo not drawn) [listing 1 of 2 here]	> 0.03	0.003 ± 0.0003	–	–	–	–	–
O=c1nc[nH]c2c1ncn2C1O[C@H](COP(=O)(O)OP(=O)(O)OP(=O)(O)O)[C@@H](O)[C@H]1O (stereo partly drawn) [inosine triphosphate (ITP) trisodium salt]	0.05 ± 0.03	–	0.03 ± 0.01	0.02 ± 0.03	active	25.1 % of IMP	80
Nc1ncnc2c1ncn2C1OC(COP(=O)(O)O)C(OP(=O)(O)O)C1O (stereo not drawn) [listing 2 of 2 here]	> 0.01	> 0.01	–	> 0.01	–	–	–
C[C@H](N)C(=O)O [alanine, reference compound]	13.6	–	–	–	–	–	–
